Measured values from paper PMC8279414, “Discovery and Synthesis of a Pyrimidine-Based Aurora Kinase Inhibitor to Reduce Levels of MYC Oncoproteins” (Journal of Medicinal Chemistry, 2021).

Biological target: T1, human Aurora A (amino acids 123–401) (Homo sapiens, UniProt O14965)
T1 construct: N-terminal truncated human Aurora A (amino acids 123–401); GST; made in house; host or cells: Sf9 insect cells
T1 sequence (O14965 123-401): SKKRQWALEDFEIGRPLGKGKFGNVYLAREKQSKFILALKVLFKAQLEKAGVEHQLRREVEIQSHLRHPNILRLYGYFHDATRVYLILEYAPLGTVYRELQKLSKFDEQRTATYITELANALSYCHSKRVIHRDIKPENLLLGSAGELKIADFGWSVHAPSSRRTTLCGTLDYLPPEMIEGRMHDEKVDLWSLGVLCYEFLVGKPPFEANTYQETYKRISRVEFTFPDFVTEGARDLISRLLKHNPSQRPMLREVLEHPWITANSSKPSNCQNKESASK
Assay: In vitro inhibition of Aurora A kinase activity (Kinase-Glo Plus Luminescent Kinase assay, ATP consumption)
Assay type: biochemical
Settings: for IC50: mean of 2–3 independent determinations ± SD, >100 = inhibition < 50% at 100 nM
Procedure: The inhibitory potency of the newly synthesized small molecules against Aurora A was first measured in ATP consumption assays using purified Aurora A protein.
The efficacy of the compounds as inhibitors of Aurora A kinase was assessed in vitro using the Kinase-Glo Plus Luminescent Kinase assay (Promega, USA), as described previously.[45] […] The resulting mixture was incubated at 25 °C for 20 min. A 70 μL aliquot of the mixture was transferred to a black microtiter plate.

Structure (SMILES) | reduction of Aurora A inhibitory potency versus 13 | IC50
CCN1CCN(c2cc(Nc3cc(C)[nH]n3)nc(N[C@H]3CCN(C(=O)c4ccc(Cl)nc4F)C3)n2)CC1 [Compound 20, (S)-(6-Chloro-2-fluoropyridin-3-yl) (3-((4-(4-ethylpiperazin-1-yl)-6-((5-methyl-1H-pyrazol-3-yl)amino)pyrimidin-2-yl)amino)pyrrolidin-1-yl)methanone] | more than 2.5 fold | > 100 nM
Cc1cc(Nc2cc(N3CC(N(C)C)C3)nc(N[C@H]3CCN(C(=O)c4cccc(Cl)c4F)C3)n2)n[nH]1 [Compound 3, (S)-(3-Chloro-2-fluorophenyl) (3-((4-(3-(dimethylamino)azetidin-1-yl)-6-((5-methyl-1H-pyrazol-3-yl)amino)pyrimidin-2-yl)amino)pyrrolidin-1-yl)methanone] | – | 29.8 ± 2.5 nM
CCN1CCN(c2cc(Nc3cc(C)[nH]n3)nc(N[C@H]3CCN(C(=O)c4ccc(C(F)(F)F)cc4F)C3)n2)CC1 [Compound 14, (S)-(3-((4-(4-Ethylpiperazin-1-yl)-6-((5-methyl-1H-pyrazol-3-yl)amino)pyrimidin-2-yl)amino)pyrrolidin-1-yl) (2-fluoro-4-(trifluoromethyl)phenyl)methanone] | – | > 100 nM
CCN1CCN(c2cc(Nc3cc(C)[nH]n3)nc(N[C@H]3CCN(S(=O)(=O)c4ccc(Cl)cc4F)C3)n2)CC1 [Compound 21, (S)-N^2-(1-((4-Chloro-2-fluorophenyl)sulfonyl)pyrrolidin-3-yl)-6-(4-ethylpiperazin-1-yl)-N^4-(5-methyl-1H-pyrazol-3-yl)pyrimidine-2,4-diamine] | more than 2.5 fold | > 100 nM
CCN1CCN(c2cc(Nc3cc(C)[nH]n3)nc(N[C@H]3CCN(C(=O)c4cc(F)c(F)cc4F)C3)n2)CC1 [Compound 19, (S)-(3-((4-(4-Ethylpiperazin-1-yl)-6-((5-methyl-1H-pyrazol-3-yl)amino)pyrimidin-2-yl)amino)pyrrolidin-1-yl) (2,4,5-trifluorophenyl)methanone] | – | > 100 nM
Cc1cc(Nc2cc(N(C)CCN(C)C)nc(N[C@H]3CCN(C(=O)c4cccc(Cl)c4F)C3)n2)n[nH]1 [Compound 5, (S)-(3-Chloro-2-fluorophenyl) (3-((4-((2-(dimethylamino)ethyl) (methyl)amino)-6-((5-methyl-1H-pyrazol-3-yl)amino)pyrimidin-2-yl)amino)pyrrolidin-1-yl)methanone] | – | 40.8 ± 2.8 nM
Cc1cc(Nc2cc(N3CCN(C)CC3)nc(N[C@H]3CCN(C(=O)c4cccc(Cl)c4F)C3)n2)n[nH]1 [Compound 2, (S)-(3-Chloro-2-fluorophenyl) (3-((4-((5-methyl-1H-pyrazol-3-yl)amino)-6-(4-methylpiperazin-1-yl)pyrimidin-2-yl)amino)pyrrolidin-1-yl)methanone] | – | 25.7 ± 4.9 nM
CCN1CCN(c2cc(Nc3cc(C)[nH]n3)nc(N[C@H]3CCN(C(=O)c4cc(F)c(Cl)c(F)c4)C3)n2)CC1 [Compound 18, (S)-(4-Chloro-3,5-difluorophenyl) (3-((4-(4-ethylpiperazin-1-yl)-6-((5-methyl-1H-pyrazol-3-yl)amino)pyrimidin-2-yl)amino)pyrrolidin-1-yl)methanone] | – | > 100 nM
Cc1cc(Nc2cc(N3CC[C@H](N(C)C)C3)nc(N[C@H]3CCN(C(=O)c4cccc(Cl)c4F)C3)n2)n[nH]1 [Compound 4, (3-Chloro-2-fluorophenyl) ((S)-3-((4-((S)-3-(dimethylamino)pyrrolidin-1-yl)-6-((5-methyl-1H-pyrazol-3-yl)amino)pyrimidin-2-yl)amino)pyrrolidin-1-yl)methanone] | – | 29.8 ± 0.7 nM
CCN1CCN(c2cc(Nc3cc(C)[nH]n3)nc(N[C@H]3CCN(C(=O)c4ccccc4)C3)n2)CC1 [Compound 6, (S)-(3-((4-(4-Ethylpiperazin-1-yl)-6-((5-methyl-1H-pyrazol-3-yl)amino)pyrimidin-2-yl)amino)pyrrolidin-1-yl) (phenyl)methanone] | – | 29 ± 6.7 nM
